Assay results published in ChEMBL document CHEMBL5316287 (J Med Chem, 2023).

How the values were obtained:
VCaP [1] = assay: Inhibition of H3K27 acetylation in AR-positive human VCaP cells at 3.9 to 1000 nM incubated for 72 hrs by Western blot analysis; assay type: functional, cell-based; conditions: dose 3.9-1000 nM
[2] = 1-Octanol/PBS partition coefficient, logD of the compound at pH 7.4 incubated for 30 mins by shake flask technique based HPLC-LC/MS analysis; assay type: physicochemical
CWR22R = assay: Antiproliferative activity against AR-positive human 22Rv1 cells assessed as cell growth inhibition incubated for 7 days by CellTiter-Glo assay; assay type: functional; conditions: 22Rv1, 168 h, time 7 day
[3] = biological target: Histone acetyltransferase KAT7 (Homo sapiens, UniProt O95251); assay: Inhibition of MYST2 (unknown origin) biotinylated H4 (1 to 25)-GSGSK peptide as substrate incubated for 1 hr in presence of acetyl-coA by AlphaLISA assay
Sequence of Histone acetyltransferase KAT7 (O95251 whole entry): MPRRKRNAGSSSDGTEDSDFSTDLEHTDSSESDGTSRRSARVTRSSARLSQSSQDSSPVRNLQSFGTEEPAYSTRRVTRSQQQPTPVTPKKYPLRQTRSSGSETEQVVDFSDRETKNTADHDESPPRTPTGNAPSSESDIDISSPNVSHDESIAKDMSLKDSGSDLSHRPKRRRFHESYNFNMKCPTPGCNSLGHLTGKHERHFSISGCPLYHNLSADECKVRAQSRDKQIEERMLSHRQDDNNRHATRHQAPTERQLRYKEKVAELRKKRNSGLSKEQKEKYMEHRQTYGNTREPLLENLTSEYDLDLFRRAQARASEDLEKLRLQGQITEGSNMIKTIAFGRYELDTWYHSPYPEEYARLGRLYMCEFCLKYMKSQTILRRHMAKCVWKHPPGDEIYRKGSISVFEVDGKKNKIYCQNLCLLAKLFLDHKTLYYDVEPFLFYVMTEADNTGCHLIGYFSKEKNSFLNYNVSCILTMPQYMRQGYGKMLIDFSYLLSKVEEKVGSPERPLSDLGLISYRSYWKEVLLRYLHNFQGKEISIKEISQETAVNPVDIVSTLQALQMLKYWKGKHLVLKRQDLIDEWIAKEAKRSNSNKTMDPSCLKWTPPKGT

VCaP [4] = assay: Antitumor activity against human VCaP cells xenografted in castrated NSG mouse assessed as tumor growth inhibition at 0.3 mg/kg,po qd for 33 days consecutively; assay type: functional; conditions: 792 h, time 33 day, read-out: TGI
VCaP [5] = assay: Antitumor activity against human VCaP cells xenografted in castrated NSG mouse assessed as decrease in plasma PSA expression at 0.3 to 3 mg/kg,po qd for 33 days consecutively and measured after 6 hrs by ELISA; assay type: functional, organism-based; conditions: dose 0.3-3 mg/kg, time 33.0 day
[6] = Toxicity in castrated NSG mouse xenografted with human VCaP cells assessed as mortality at 0.3 to 3 mg/kg,po qd for 33 days consecutively; assay type: organism-based; conditions: in vivo, 792 h, dose 0.3-3 mg/kg, time 33 day
[7] = Toxicity in castrated NSG mouse xenografted with human VCaP cells assessed as body weight loss at 0.3 to 3 mg/kg,po qd for 33 days consecutively; assay type: organism-based; conditions: in vivo, 792 h, dose 0.3-3 mg/kg, time 33 day
[8] = Metabolic stability in human liver microsomes assessed as intrinsic clearance at 1 uM; assay type: ADME, Microsome
[9] = Unbound AUC in BALB/cAnNCrlCrlj mouse at 10 mg/kg,po; assay type: ADME, organism-based; conditions: in vivo
[10] = biological target: Histone acetyltransferase p300 (Homo sapiens, UniProt Q09472); assay: Inhibition of EP300 in human LK2 cells assessed as reduction in intracellular H3K27 acetylation incubated for 3 hrs by chemiluminescence based ELISA; assay type: cell-based
Sequence of Histone acetyltransferase p300 (Q09472 whole entry): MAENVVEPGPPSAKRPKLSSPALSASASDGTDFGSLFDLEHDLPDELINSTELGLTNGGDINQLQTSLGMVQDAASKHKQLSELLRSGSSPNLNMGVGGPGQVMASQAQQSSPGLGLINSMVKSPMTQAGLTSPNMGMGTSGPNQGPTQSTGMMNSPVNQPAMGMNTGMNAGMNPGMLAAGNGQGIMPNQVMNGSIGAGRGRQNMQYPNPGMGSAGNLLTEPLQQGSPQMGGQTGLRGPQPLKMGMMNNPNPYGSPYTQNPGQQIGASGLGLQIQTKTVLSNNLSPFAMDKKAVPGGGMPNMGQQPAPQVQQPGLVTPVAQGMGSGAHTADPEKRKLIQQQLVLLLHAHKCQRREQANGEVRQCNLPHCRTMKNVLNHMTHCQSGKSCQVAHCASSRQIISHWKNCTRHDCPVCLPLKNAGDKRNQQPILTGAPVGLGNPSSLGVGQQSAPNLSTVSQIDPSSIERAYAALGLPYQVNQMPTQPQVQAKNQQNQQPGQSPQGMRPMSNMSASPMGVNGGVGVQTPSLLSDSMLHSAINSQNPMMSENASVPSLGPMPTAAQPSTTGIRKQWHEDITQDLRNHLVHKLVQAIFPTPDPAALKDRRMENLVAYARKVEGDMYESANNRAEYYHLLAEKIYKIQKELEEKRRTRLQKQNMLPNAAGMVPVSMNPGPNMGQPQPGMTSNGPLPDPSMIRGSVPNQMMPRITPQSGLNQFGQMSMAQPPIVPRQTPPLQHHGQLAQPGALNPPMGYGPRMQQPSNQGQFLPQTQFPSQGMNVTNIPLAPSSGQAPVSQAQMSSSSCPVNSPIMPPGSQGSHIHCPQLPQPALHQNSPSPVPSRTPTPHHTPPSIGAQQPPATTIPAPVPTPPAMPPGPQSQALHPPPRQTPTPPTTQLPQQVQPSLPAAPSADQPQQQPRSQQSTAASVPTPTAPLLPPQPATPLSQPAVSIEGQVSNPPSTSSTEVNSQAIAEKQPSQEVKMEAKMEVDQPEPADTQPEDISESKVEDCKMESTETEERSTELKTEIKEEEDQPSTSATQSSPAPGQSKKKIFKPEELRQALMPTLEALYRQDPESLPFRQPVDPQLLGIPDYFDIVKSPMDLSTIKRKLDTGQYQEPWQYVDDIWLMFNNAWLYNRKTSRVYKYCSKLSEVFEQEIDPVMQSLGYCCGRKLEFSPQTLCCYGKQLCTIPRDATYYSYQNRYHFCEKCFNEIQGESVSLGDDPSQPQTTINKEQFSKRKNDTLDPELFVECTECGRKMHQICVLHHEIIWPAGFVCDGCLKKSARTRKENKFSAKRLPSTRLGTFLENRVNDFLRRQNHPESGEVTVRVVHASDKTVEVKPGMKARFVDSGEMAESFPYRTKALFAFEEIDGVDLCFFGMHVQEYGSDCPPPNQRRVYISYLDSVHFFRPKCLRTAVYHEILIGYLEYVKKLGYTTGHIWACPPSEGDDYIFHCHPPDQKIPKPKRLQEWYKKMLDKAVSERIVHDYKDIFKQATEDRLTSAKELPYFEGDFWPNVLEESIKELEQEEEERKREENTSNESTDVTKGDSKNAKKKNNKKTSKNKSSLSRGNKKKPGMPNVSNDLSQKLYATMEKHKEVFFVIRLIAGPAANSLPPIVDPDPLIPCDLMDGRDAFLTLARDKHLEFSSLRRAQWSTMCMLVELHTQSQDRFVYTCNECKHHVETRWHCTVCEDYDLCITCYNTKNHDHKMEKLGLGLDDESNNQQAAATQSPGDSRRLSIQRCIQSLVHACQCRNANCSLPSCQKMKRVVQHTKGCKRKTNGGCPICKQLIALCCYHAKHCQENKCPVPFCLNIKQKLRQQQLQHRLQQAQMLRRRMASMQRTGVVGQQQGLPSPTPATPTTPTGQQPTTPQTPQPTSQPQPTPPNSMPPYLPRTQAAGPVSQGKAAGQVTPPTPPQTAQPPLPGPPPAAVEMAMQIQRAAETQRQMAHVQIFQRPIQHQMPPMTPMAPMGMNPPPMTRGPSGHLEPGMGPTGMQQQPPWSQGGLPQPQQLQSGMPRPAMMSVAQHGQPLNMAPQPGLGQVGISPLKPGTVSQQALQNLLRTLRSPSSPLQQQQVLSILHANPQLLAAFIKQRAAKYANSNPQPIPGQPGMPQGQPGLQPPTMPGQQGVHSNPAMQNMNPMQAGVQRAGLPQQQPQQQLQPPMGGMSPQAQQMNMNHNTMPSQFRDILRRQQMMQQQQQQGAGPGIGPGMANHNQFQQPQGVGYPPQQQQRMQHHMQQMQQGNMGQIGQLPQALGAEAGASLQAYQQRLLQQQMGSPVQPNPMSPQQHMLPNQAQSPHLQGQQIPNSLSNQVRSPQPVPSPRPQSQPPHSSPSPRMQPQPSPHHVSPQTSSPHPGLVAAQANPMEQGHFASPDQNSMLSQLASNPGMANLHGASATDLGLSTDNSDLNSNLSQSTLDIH

[11] = Oral bioavailability in BALB/cAnNCrlCrlj mouse at 10 mg/kg; assay type: ADME, organism-based; conditions: in vivo, po, 10 mg/kg
CREB-binding protein = CREB-binding protein (Homo sapiens, UniProt Q92793); assay: Inhibition of CBP (unknown origin) biotinylated H4 (1 to 25)-GSGSK peptide as substrate incubated for 1 hr in presence of acetyl-coA by AlphaLISA assay
[12] = biological target: Histone acetyltransferase KAT6B (Homo sapiens, UniProt Q8WYB5); assay: Inhibition of MYST4 (unknown origin) biotinylated H4 (1 to 25)-GSGSK peptide as substrate incubated for 1 hr in presence of acetyl-coA by AlphaLISA assay
Sequence of Histone acetyltransferase KAT6B (Q8WYB5 whole entry): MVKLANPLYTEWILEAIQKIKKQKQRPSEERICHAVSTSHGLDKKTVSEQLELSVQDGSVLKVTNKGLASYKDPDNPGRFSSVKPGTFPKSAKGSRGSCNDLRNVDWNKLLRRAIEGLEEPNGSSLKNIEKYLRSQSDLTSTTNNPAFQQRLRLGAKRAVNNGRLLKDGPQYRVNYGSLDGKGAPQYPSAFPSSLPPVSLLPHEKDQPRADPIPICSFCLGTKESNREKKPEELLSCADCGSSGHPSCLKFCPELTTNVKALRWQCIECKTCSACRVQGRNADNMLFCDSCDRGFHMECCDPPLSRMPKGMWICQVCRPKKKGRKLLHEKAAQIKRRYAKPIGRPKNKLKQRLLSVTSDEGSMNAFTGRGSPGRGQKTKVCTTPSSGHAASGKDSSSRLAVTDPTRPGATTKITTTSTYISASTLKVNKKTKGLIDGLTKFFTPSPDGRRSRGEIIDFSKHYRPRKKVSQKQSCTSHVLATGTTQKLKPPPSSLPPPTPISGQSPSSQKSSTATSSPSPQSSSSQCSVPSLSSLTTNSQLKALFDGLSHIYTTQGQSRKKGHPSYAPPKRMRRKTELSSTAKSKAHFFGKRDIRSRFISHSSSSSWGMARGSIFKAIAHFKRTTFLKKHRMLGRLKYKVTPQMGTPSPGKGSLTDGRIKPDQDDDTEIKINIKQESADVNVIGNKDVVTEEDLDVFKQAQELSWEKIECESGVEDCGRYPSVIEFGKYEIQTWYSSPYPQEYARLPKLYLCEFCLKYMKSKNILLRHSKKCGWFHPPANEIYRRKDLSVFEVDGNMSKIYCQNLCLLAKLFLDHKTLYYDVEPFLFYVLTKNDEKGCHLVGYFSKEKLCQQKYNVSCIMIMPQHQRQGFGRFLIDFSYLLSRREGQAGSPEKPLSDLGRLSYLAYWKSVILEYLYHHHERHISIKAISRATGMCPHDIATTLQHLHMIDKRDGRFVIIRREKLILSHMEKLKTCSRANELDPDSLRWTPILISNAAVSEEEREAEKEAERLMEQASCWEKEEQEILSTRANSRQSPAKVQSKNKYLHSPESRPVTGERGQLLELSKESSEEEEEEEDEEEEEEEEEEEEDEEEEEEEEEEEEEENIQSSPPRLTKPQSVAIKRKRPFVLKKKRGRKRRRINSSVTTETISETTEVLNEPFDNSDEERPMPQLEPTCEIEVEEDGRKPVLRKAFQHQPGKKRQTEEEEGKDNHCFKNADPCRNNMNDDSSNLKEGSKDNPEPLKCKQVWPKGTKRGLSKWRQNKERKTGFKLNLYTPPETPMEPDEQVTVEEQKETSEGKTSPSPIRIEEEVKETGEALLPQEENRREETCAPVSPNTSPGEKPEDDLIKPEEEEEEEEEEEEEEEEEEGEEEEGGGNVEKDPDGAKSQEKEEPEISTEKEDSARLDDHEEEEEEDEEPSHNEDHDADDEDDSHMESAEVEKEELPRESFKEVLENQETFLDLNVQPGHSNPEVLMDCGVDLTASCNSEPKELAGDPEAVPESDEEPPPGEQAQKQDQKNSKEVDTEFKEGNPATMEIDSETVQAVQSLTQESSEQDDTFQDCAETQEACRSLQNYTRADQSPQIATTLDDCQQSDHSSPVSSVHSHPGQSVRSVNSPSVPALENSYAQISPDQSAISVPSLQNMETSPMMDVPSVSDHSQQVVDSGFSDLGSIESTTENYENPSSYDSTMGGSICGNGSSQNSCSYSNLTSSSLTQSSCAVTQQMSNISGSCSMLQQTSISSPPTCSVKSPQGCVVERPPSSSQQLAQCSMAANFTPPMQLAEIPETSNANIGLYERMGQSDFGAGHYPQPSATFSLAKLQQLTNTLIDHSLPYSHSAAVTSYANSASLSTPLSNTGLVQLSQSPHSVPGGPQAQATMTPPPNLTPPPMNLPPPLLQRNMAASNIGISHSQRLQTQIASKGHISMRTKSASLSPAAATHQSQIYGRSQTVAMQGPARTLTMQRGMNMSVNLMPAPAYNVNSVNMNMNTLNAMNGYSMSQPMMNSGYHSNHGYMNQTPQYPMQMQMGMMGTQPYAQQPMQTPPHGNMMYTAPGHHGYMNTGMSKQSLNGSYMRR

LNCaP [13] = assay: Downregulation of PSA expression in AR-positive human LNCaP cells at 3.9 to 1000 nM incubated for 72 hrs by Western blot analysis; assay type: functional, cell-based; conditions: dose 3.9-1000 nM
LNCaP [14] = assay: Antiproliferative activity against AR-positive human LNCaP cells assessed as cell growth inhibition incubated for 7 days by CellTiter-Glo assay; assay type: functional; conditions: 168 h, time 7 day
VCaP [15] = assay: Downregulation of PSA expression in AR-positive human VCaP cells at 3.9 to 1000 nM incubated for 72 hrs by Western blot analysis; assay type: functional, cell-based; conditions: dose 3.9-1000 nM
LNCaP [16] = assay: Inhibition of H3K18 acetylation in AR-positive human LNCaP cells at 3.9 to 1000 nM incubated for 72 hrs by Western blot analysis; assay type: functional, cell-based; conditions: dose 3.9-1000 nM
[17] = Metabolic stability in mouse liver microsomes assessed as intrinsic clearance at 1 uM; assay type: ADME, Microsome
[18] = Half life in BALB/cAnNCrlCrlj mouse at 10 mg/kg,po; assay type: ADME, organism-based; conditions: in vivo
PC-3 = assay: Antiproliferative activity against AR-negative human PC-3 cells assessed as cell growth inhibition incubated for 7 days by CellTiter-Glo assay; assay type: functional; conditions: PC-3, 168 h, time 7 day
VCaP [19] = assay: Antitumor activity against human VCaP cells xenografted in castrated NSG mouse assessed as tumor growth inhibition at 1 mg/kg,po qd for 33 days consecutively; assay type: functional; conditions: 792 h, time 33 day, read-out: TGI
[20] = Volume of distribution at steady state in BALB/cAnNCrlCrlj mouse at 1 mg/kg,iv administered as DMA/Tween80/saline (1:1:8 ratio) solution; assay type: ADME, organism-based; conditions: in vivo, read-out: Vdss
[21] = Unbound clearance in BALB/cAnNCrlCrlj mouse at 1 mg/kg,iv administered as DMA/Tween80/saline (1:1:8 ratio) solution; assay type: ADME, organism-based; conditions: in vivo
[22] = biological target: Histone acetyltransferase KAT2A (Homo sapiens, UniProt Q92830); assay: Inhibition of GCN5 (unknown origin) biotinylated H3 (1 to […])-GGK peptide as substrate incubated for 1 hr in presence of acetyl-coA by AlphaLISA assay
[23] = AUC in BALB/cAnNCrlCrlj mouse at 10 mg/kg,po; assay type: ADME, organism-based; design: dose 10 mg/kg, route po; conditions: in vivo
LNCaP [24] = assay: Inhibition of H3K27 acetylation in AR-positive human LNCaP cells at 3.9 to 1000 nM incubated for 72 hrs by Western blot analysis; assay type: functional, cell-based; conditions: dose 3.9-1000 nM
[25] = biological target: Histone acetyltransferase KAT2B (Homo sapiens, UniProt Q92831); assay: Inhibition of PCAF (unknown origin) biotinylated H3 (1 to […])-GGK peptide as substrate incubated for 1 hr in presence of acetyl-coA by AlphaLISA assay
[26] = Cmax in BALB/cAnNCrlCrlj mouse at 10 mg/kg,po; assay type: ADME, organism-based; design: dose 10 mg/kg, route po; conditions: in vivo
VCaP [27] = assay: Antitumor activity against human VCaP cells xenografted in castrated NSG mouse assessed as tumor growth inhibition at 3 mg/kg,po qd for 33 days consecutively; assay type: functional; conditions: 792 h, time 33 day, read-out: TGI
VCaP [28] = assay: Antiproliferative activity against AR-positive human VCaP cells assessed as cell growth inhibition incubated for 7 days by CellTiter-Glo assay; assay type: functional; conditions: 168 h, time 7 day
[29] = biological target: Histone acetyltransferase KAT5 (Homo sapiens, UniProt Q92993); assay: Inhibition of TIP60 (unknown origin) biotinylated H4 (1 to 25)-GSGSK peptide as substrate incubated for 1 hr in presence of acetyl-coA by AlphaLISA assay
VCaP [30] = assay: Inhibition of H3K18 acetylation in AR-positive human VCaP cells at 3.9 to 1000 nM incubated for 72 hrs by Western blot analysis; assay type: functional, cell-based; conditions: dose 3.9-1000 nM

Structure (SMILES): COc1ccc(C2(C(=O)N3C[C@H](F)C[C@@H]3C(=O)Nc3ccc4[nH]ncc4n3)CCC(F)(F)CC2)cc1
- inhibition (VCaP [1]): Dose-Dependent Effect
- logD at 0.5 h [2]: 3
- GI50 (CWR22R): 6.5 nM
- IC50 [3]: > 50000 nM
- inhibition in vivo at 0.3 mg/kg (VCaP [4]): 39%
- Activity (VCaP [5]): Dose-Dependent Effect
- Activity [6]: Non-Toxic
- Activity [7]: Non-Toxic
- intrinsic clearance [8]: 50 µL/min/mg
- fAUC [9]: 5.33 µM·h
- IC50 [10]: 54 nM
- F [11]: 21%
- IC50 (CREB-binding protein): 1 nM
- IC50 [12]: > 50000 nM
- Activity (LNCaP [13]): Dose-Dependent Effect
- GI50 (LNCaP [14]): 3.4 nM
- Activity (VCaP [15]): Dose-Dependent Effect
- inhibition (LNCaP [16]): Dose-Dependent Effect
- intrinsic clearance (CLint) [17]: 50 µL/min/mg
- half-life [18]: 2.4 h
- GI50 (PC-3): 287 nM
- inhibition in vivo at 1 mg/kg (VCaP [19]): 74%
- Vd [20]: 0.14 L/kg
- CL free [21]: 39 mL/min/kg
- IC50 [22]: > 50000 nM
- AUC [23]: 130 µM·h
- inhibition (LNCaP [24]): Dose-Dependent Effect
- IC50 [25]: > 50000 nM
- Cmax [26]: 34 µM
- inhibition in vivo at 3 mg/kg (VCaP [27]): 109%
- GI50 (VCaP [28]): 0.6 nM
- IC50 [29]: > 50000 nM
- inhibition (VCaP [30]): Dose-Dependent Effect
